# From patent publication US9018248B2, “Fatty acid derivatives of catechins and methods of their use” (Genesis Group Inc., priority 2010, dated 2015)
# pIC50: −log10 of the molar value. Like-named read-outs stand apart in the source and are kept apart here. Marks after values point to notes of the source that are not given here.
# Tests used:
# [1] = tested on: LPS-induced NO production; assay: LPS-induced NO production in RAW 264.7 macrophage (Griess reaction); type: cell-based, murine; settings: RAW 264.7 macrophage, nitrite by Griess reaction, read-out: IC50, inhibition against LPS-induced NO production
# Experimental: RAW 264.7 cells were cultured in Rosewell Park Memorial Institute (RPMI) 1640 media (without phenol red) supplemented with 10% endotoxin-free, heat-inactivated fetal calf serum, 100 units/ml penicillin, and 100 μg/ml streptomycin. When the cells reached a density of 2-3×10^6 cells/ml, they were activated by incubation in a medium containing E. coli lipopolysaccharide (LPS) (100 ng/ml). Various concentrations of compounds of the disclosure in dimethyl sulphoxide (DMSO) were added together with LPS. Cells were treated with 0.05% DMSO as the vehicle control. The stimulated murine macrophage cell line RAW 264.7 cells were washed with PBS and lysed in an ice-cold RIPA buffer (Tris-HCl, pH 7.2, 25 mM; 0.1% SDS; 1% Triton X-100; 1% sodium deoxycholate; 0.15 M NaCl; 1 mM EDTA) containing 1 mM phenylmethyl sulphonyl fluoride (PMSF), 10 μg/mL aprotinin, 1 mM sodium ortho-vanadate, and 5 μg/mL leupeptin. Protein concentrations were determined using the BCA method (Pierce, Rockford, Ill.). The samples (50 μg of protein) were mixed with 5-fold of sample buffer containing 0.3 M Tris-HCl (pH 6.8), 25% 2-mercaptoethanol, 12% sodium dodecyl sulphate (SDS), 25 mM EDTA, 20% glycerol, and 0.1% bromophenol blue. The mixtures were boiled at 100° C. for 5 min, prerun on a stacking gel, and then resolved by 12% SDS-polyacrylamide minigels at a constant current of 20 mA. For western blot, proteins on the gel were electro-transferred onto a […] immobile polyvinylidene fluoride (PVDF) membrane with a transfer buffer composed of 25 mM Tris-HCl (pH 8.9), 192 mM glycine, and 20% methanol, as described by Pan et al. (2000). Membrane blocking was then carried out at room temperature for 1 h in blocking solution (20 mM Tris-HCl pH 7.4, 125 mM NaCl, 0.2% Tween 20, 1% bovine serum albumin, and 0.1% sodium azide). The membrane was incubated with the primary antibody of iNOS and COX-2 at 4° C. overnight. The membranes were subsequently probed with selected IgG antibody conjugated to horseradish peroxidase (Transduction Laboratories, Lexington, Ky.) and visualized using enhanced chemiluminescence (ECL, Amersham). The densities of the bands were quantitated using a densitometer (AlphaImager 2200 System). All the membranes were stripped and reprobed for β-actin (Sigma Chemical Co., St. Louis, Mo.) as loading control. […] The inhibition of iNOS induction by compounds of the disclosure may be due to down regulation of iNOS gene expression. […] (7b) Inhibition Against LPS-Induced NO Production in RAW 264.7 Macrophage The LPS-induced NO production by the macrophages was determined as nitrite concentration in the culture medium according to the Griess reaction. […] The absorbance of the mixture at 550 nm was measured with an ELISA plate reader (Dynatech MR-7000; Dynatech Laboratories, Chantilly, Va., USA). […]
# [2] = TBARS formation in cooked pork model system; settings: 80 μmol/kg meat, stored at 4° C.
# Experimental: Fresh ground pork (40 g) was mixed with deionized water (10 g) in a Mason jar. Samples and reference antioxidant compound (BHA) dissolved in ethanol were added to meat at a level of 80 μmol/kg. A control without any antioxidant was also prepared. The content was thoroughly mixed and cooked at 80° C. in a thermostated water bath for 40 min with intermittent stirring. The cooked meat was cooled to room temperature and homogenized with a Polytron PT 3000 (Brinkmann Instruments, Rexdale, ON) homogenizer. The homogenate was then transferred into plastic bags and stored at 4° C. for 14 days. […].
# TBARS values were determined as described by Shahidi and Hong (Shahidi, F. and Hong, C. Evaluation of malonaldehyde as a marker of oxidative rancidity in meat products. J. Food Biochem. 15, 97-105, 1991).
# A series of TMP (1,1,3,3-tetramethoxypropane) standard solutions at difference concentrations was mixed with thiobarbituric acid (TBA) in screw-capped tubes and heated in a boiling water bath for 45 min. After cooling on ice, the absorbance was recorded at 532 nm and a standard curve was constructed (absorbance versus concentration). For TBARS in the cooked meat model system, 2 g of meat were mixed with 5 ml of trichloroacetic acid (TCA, 10% w/v) in a centrifuge tube, followed by addition of 5 ml of TBA reagent. The mixture was centrifuged at 3000×g for 10 min and the supernatant was filtered. The filtrate was heated in a boiling water bath for 45 min and absorbance was measured at 532 nm after cooling to room temperature. TBARS values in meat samples were obtained using the standard curve as μmol malonaldehyde equivalents/kg of meat. Antioxidant activity was calculated as percentage inhibition of TBARS formation by test compounds.
# Human LDL = assay: Inhibition of copper-induced LDL-cholesterol oxidation; settings: CuSO4-induced, 37° C., 22 hours
# Experimental: Human LDL solution was dialyzed overnight in PBS (10 mM, 0.15M NaCl, pH 7.4) at 4° C. under nitrogen blanket prior to the test. Sample solutions were prepared by dissolving the test compounds in ethanol at concentration of 500 μM. Ten microliters of sample solutions were transferred into a set of Eppendorf tubes, and the solvent was evaporated to dryness under a nitrogen stream. To each tube 0.1 ml of PBS was added, followed by vortexing for 1 min. An aliquot (0.8 ml) of the dialyzed and diluted LDL solution (0.125 mg/ml) was added to each tube, and the contents were mixed well and incubated at 37° C. for 15 min. The reaction was initiated by adding 0.1 ml of CuSO4 (20 μM, previously incubated). A blank containing only sample without LDL or CuSO4 was prepared for each test compound. After incubation of the reaction mixture at 37° C. for 22 hours, the conjugated dienes formed as a result of oxidation were measured spectrophotometrically at 234 nm. […] All absorbances for samples were blank-corrected. Discussion
# iNOS = iNOS protein expression in LPS-stimulated RAW 264.7 macrophages (western blot); type: cell-based, murine; settings: LPS 100 ng/ml, RAW 264.7, western blot; 20 and 40 μM for 1a-1c
# Experimental: RAW 264.7 cells were cultured in Rosewell Park Memorial Institute (RPMI) 1640 media (without phenol red) supplemented with 10% endotoxin-free, heat-inactivated fetal calf serum, 100 units/ml penicillin, and 100 μg/ml streptomycin. When the cells reached a density of 2-3×10^6 cells/ml, they were activated by incubation in a medium containing E. coli lipopolysaccharide (LPS) (100 ng/ml). Various concentrations of compounds of the disclosure in dimethyl sulphoxide (DMSO) were added together with LPS. Cells were treated with 0.05% DMSO as the vehicle control. The stimulated murine macrophage cell line RAW 264.7 cells were washed with PBS and lysed in an ice-cold RIPA buffer (Tris-HCl, pH 7.2, 25 mM; 0.1% SDS; 1% Triton X-100; 1% sodium deoxycholate; 0.15 M NaCl; 1 mM EDTA) containing 1 mM phenylmethyl sulphonyl fluoride (PMSF), 10 μg/mL aprotinin, 1 mM sodium ortho-vanadate, and 5 μg/mL leupeptin. Protein concentrations were determined using the BCA method (Pierce, Rockford, Ill.). The samples (50 μg of protein) were mixed with 5-fold of sample buffer containing 0.3 M Tris-HCl (pH 6.8), 25% 2-mercaptoethanol, 12% sodium dodecyl sulphate (SDS), 25 mM EDTA, 20% glycerol, and 0.1% bromophenol blue. The mixtures were boiled at 100° C. for 5 min, prerun on a stacking gel, and then resolved by 12% SDS-polyacrylamide minigels at a constant current of 20 mA. For western blot, proteins on the gel were electro-transferred onto a […] immobile polyvinylidene fluoride (PVDF) membrane with a transfer buffer composed of 25 mM Tris-HCl (pH 8.9), 192 mM glycine, and 20% methanol, as described by Pan et al. (2000). […] The densities of the bands were quantitated using a densitometer (AlphaImager 2200 System). […] (7b) Inhibition Against LPS-Induced NO Production in RAW 264.7 Macrophage The LPS-induced NO production by the macrophages was determined as nitrite concentration in the culture medium according to the Griess reaction. […] The absorbance of the mixture at 550 nm was measured with an ELISA plate reader (Dynatech MR-7000; Dynatech Laboratories, Chantilly, Va., USA). […]
Structure (SMILES),"pIC50 ([1]; Mus musculus, RAW264.7)",Inhibition of TBARS formation in cooked pork [2],Inhibition of LDL-cholesterol oxidation (conjugated diene formation) (Human LDL),pIC50 [1],Inhibition of iNOS protein expression (iNOS)
"CCCCCCCCCCCCCCCCCC(=O)Oc1cc(C(=O)OC2Cc3c(O)cc(O)cc3OC2c2cc(OC(=O)CCCCCCCCCCCCCCCCC)c(O)c(OC(=O)CCCCCCCCCCCCCCCCC)c2)cc(OC(=O)CCCCCCCCCCCCCCCCC)c1O (stereo not shown) [Compound 1a, EGCG stearate]",4.39,86.3 ± 2.10^a %,16.33%,–,–
"O=C(O[C@@H]1Cc2c(O)cc(O)cc2O[C@@H]1c1cc(O)c(O)c(O)c1)c1cc(O)c(O)c(O)c1 [EGCG, Epigallocatechin gallate, reference compound]",3.99,71.9 ± 1.56^d %,6.53%,3.99,–
CCC=CCC=CCC=CCC=CCC=CCCCC(=O)Oc1cc(C(=O)OC2Cc3c(O)cc(O)cc3OC2c2cc(OC(=O)CCCC=CCC=CCC=CCC=CCC=CCC)c(O)c(OC(=O)CCCC=CCC=CCC=CCC=CCC=CCC)c2)cc(OC(=O)CCCC=CCC=CCC=CCC=CCC=CCC)c1O (stereo not shown) [Compound 1b],–,80.5 ± 0.80^bc %,11.80%,–,strong dose-dependent relationship in suppressing the cytokine production
CCC=CCC=CCC=CCC=CCC=CCC=CCCC(=O)Oc1cc(C(=O)OC2Cc3c(O)cc(O)cc3OC2c2cc(OC(=O)CCC=CCC=CCC=CCC=CCC=CCC=CCC)c(O)c(OC(=O)CCC=CCC=CCC=CCC=CCC=CCC=CCC)c2)cc(OC(=O)CCC=CCC=CCC=CCC=CCC=CCC=CCC)c1O (stereo not shown) [Compound 1c],–,78.4 ± 1.62^c %,8.18%,–,the most potent in inhibiting the induction of iNOS expression
